Read-outs that look alike come from different tables or passages of the source.
Assays:
His-Brd4(44-477) = His-Brd4(44-477) (Homo sapiens (Human), UniProt O60885); assay: TR-FRET in-vitro binding assay for BRD4; conditions: biochemical
Description: (§1) TR-FRET In-Vitro Binding Assays for BRD2, BRD3, and BRD4:
(§2) All assays were performed in 384-well microtiter plates. Each assay plate contained 8-point serial dilutions for 40 test compounds, plus 16 high- and 16 low controls. Liquid handling and incubation steps were done on an Innovadyne Nanodrop Express equipped with a robotic arm (Thermo CatX, Perkin Elmer/Caliper Twister II) and an incubator (Liconic STX40, Thermo Cytomat 2C450). The assay plates were prepared by addition of 50 nl per well of compound solution in 90% DMSO HummingBird nanodispenser (Zinsser Analytic). The assay was started by stepwise addition of 4.5 μL per well of bromo domain protein (50 mM HEPES, pH 7.5, 0.005% Tween20, 0.1% BSA, 50 mM NaCl, 45 nM His-Brd2(60-472) or 45 nM His-Brd3(20-477) or 45 nM His-Brd4(44-477) all proteins produced in-house) and 4.5 μL per well of peptide solution (50 mM HEPES, pH 7.5, 0.005% Tween20, 0.1% BSA, 50 mM NaCl, 60 nM acetyl-histone H4 (AcK 5, 8, 12, 16) (Biosyntan GmbH)). Reactions were incubated at 30° C. for 35 minutes. Subsequently 4.5 μL per well detection mix (50 mM HEPES, pH 7.5, 0.005% Tween20, 0.1% BSA, 50 mM NaCl, 3 nM Eu-labeled anti-His6 antibody, 21 nM streptavidin-allophycocyanin) were added. After minutes incubation at 30° C., plates were measured in a Perkin Elmer EnVision multilabel reader.
(§3) Test compounds were dissolved in DMSO (10 mM) and transferred into 1.4 mL flat bottom or V-shaped Matrix tubes carrying a unique 2D matrix. The stock solutions were stored at […] if not used immediately. For the test procedure the vials were defrosted and identified by a scanner whereby a working sheet was generated that guided the subsequent working steps. Compound dilutions were made in 96 well plates. This format enabled the assay of maximally […] at 8 concentrations (single points) including 4 reference compounds, if desired (known BET inhibitors from the prior art, for this and other assays of the type disclosed herein). The dilution protocol included the production of “pre-dilution plates”, “master plates” and “assay plates”.
(§4) Polypropylene 96-well plates were used as pre-dilution plates. […] All dilution steps were done on a HamiltonSTAR robot.
(§5) 30 μL of individual compound dilutions including standard compound and controls of the 4 “pre-dilution plates” were transferred into a 384-well “master plate” including the following concentrations 10000, […], 1000, 300, 100, 30, 10 and 3 μM, respectively in 90% of DMSO.
(§6) Identical “assay plates” were then prepared by pipetting 50 nL each of compound dilutions of the “master plates” into 384-well “assay plates” by means of a HummingBird 384-channel dispenser. These plates were used directly for the assay which was performed in a total volume of 13.55 μL.

His-Brd2(60-472) = His-Brd2(60-472) (Homo sapiens (Human), UniProt P25440); assay: TR-FRET in-vitro binding assay for BRD2; conditions: biochemical
Sequence of His-Brd2(60-472) (P25440 60-472): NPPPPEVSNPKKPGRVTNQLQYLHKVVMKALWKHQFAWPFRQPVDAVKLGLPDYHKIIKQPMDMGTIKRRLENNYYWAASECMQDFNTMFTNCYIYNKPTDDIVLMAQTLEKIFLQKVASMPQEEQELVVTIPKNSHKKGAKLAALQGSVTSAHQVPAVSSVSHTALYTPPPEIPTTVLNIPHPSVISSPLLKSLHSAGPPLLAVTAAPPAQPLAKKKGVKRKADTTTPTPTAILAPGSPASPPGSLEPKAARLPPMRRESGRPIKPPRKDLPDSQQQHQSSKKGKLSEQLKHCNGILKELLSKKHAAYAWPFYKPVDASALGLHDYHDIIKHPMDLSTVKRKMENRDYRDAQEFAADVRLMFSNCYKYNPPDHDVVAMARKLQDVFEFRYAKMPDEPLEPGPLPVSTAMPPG
Description: as §1, §2, §3, §4, §5, §6

His-Brd3(20-477) = His-Brd3(20-477) (Homo sapiens (Human), UniProt Q15059); assay: TR-FRET in-vitro binding assay for BRD3; conditions: biochemical
Sequence of His-Brd3(20-477) (Q15059 20-477): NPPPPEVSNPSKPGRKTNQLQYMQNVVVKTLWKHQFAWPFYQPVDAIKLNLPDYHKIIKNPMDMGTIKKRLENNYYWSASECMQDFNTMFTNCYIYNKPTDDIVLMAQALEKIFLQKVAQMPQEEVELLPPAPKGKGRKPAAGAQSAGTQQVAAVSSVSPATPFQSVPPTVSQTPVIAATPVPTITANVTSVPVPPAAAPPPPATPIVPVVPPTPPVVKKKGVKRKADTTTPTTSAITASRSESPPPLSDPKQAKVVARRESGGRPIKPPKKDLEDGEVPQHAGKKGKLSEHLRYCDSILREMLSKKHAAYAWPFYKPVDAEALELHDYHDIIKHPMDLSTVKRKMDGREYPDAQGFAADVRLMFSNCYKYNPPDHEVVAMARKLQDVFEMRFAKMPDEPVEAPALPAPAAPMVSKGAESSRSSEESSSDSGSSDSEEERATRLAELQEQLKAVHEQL
Description: as §1, §2, §3, §4, §5, §6

[1] = target: His-CREBBP (1081-1197) bromodomain (Homo sapiens (Human), UniProt Q92793); assay: AlphaScreen in-vitro binding assay for CREBBP; conditions: biochemical
Sequence of His-CREBBP (1081-1197) bromodomain (Q92793 1081-1197): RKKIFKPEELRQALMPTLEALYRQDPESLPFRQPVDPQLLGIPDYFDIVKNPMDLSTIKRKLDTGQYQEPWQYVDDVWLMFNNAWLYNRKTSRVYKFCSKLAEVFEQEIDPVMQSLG
Description: AlphaScreen In-Vitro Binding Assay for CREBBP
In order to assess bromodomain selectivity, we set up a binding assay using the bromodomain encoded by the CREBBP gene. […] Reactions were incubated at 30° C. for 35 minutes. Subsequently 4.5 μL per well detection mix (50 mM HEPES, pH 7.5, 0.005% Tween20, 0.02% BSA, 150 mM NaCl, 45 μg/ml Ni-chelate acceptor beads, 45 μg/mL streptavidin-donor beads) (Perkin Elmer)) were added. After 60 minutes incubation at room temperature, plates were measured in a Perkin Elmer EnVision multilabel reader. IC50 values were determined from percent inhibition values at different compound concentrations by non-linear regression analysis.
as §3, §4
These plates were used directly for the assay which was performed in a total volume of 13.55 μL.

K-562 cells = assay: Cell growth inhibition assay (CellTiter-Glo), K-562; type: cell-based, human
Description: (§7) Cell Growth Inhibition Assay
(§8) The human leukemia cell lines MV-4-11, THP-1 and K-562 were employed to characterize the effect of BET inhibitors on cellular proliferation and viability. Cells were obtained from the American Type Culture Collection (ATCC) and cultured at 37° C. in a humidified 5% CO2 incubator in the following media: MV-4-11: DMEM high glucose (Animed #1-26F01-I), 10% FCS (Animed #2-01F26-I), 4 mM L-Glutamine (Animed #5-10K50), 1 mM Sodium Pyruvate (Animed # G03625P), 1× Penicillin-Streptomycin (Animed # F12478P); K-562: Iscove's MEM (Animed #1-28F16-I), 10% FCS (Animed #2-01F26-I), 4 mM L-Glutamine (Animed #5-10K50), 1× Penicillin-Streptomycin (Animed # F12478P); THP-1: RPMI-1640 (Animed #1-41F01-I), 10% FCS (Animed #2-01F26-I), 2 mM L-Glutamine (Animed #5-10K50), 10 mM HEPES (Animed #5-31F100), 1 mM Sodium Pyruvate (Animed # G03625P), 1× Penicillin-Streptomycin (Animed # F12478P). The AML lines MV-4-11 and THP-1 are very sensitive to BET inhibitors and show massive cell death upon BET inhibition (Zuber et al., Nature, 478 (2011), 524-8). Compound-mediated suppression of cell proliferation/viability was assessed by quantification of cellular ATP levels using the CellTiter-Glo (CTG) reagent (Promega). Briefly, cells were seeded in 20 μl fresh medium into 384-well plates, followed by addition of 5 μL medium containing compound dilutions at 5-fold their final intended concentration. Dose-response effects were assessed by 3-fold serial dilutions of the test compound, starting at 10 μM. Following incubation of the cells for days at 37° C. and 5% CO2, the effect of inhibitors on cell viability was quantified following addition of 20 μl CTG and luminescence quantification (integration time: 100 ms) as per vendor manual, using a correspondingly equipped Tecan M200 multi-mode platereader (TECAN, Switzerland). For data analysis, the assay background value determined in wells containing medium, but no cells, was subtracted from all data points. To enable differentiation of cytotoxic from cytostatic compounds, the number of viable cells is assessed relative to that observed at the time of compound addition using a separate cell plate (day 0). The effect of a particular test compound concentration on cell proliferation/viability is expressed as percentage of the background- and day 0-corrected luminescence reading obtained for cells treated with vehicle only (DMSO, 0.1% final concentration), which is set as 100%, whereas that luminescence reading for wells containing medium is set as −100%. Compound concentrations leading to half-maximal (IC50) and total growth inhibition (TGI) were determined using standard four parameter curve fitting.

MV-4-11 cells = assay: Cell growth inhibition assay (CellTiter-Glo), MV-4-11; type: cell-based; conditions: Homo sapiens, MV4-11, read-out: MV-4-11 TGI
Description: as §7, §8

THP-1 cells = assay: Cell growth inhibition assay (CellTiter-Glo), THP-1; type: cell-based; conditions: Homo sapiens, read-out: THP-1 TGI
Description: as §7, §8

[2] = Homo sapiens, K562, read-out: K-562 TGI

IC50 (His-Brd4(44-477)) [nM] | IC50 (His-Brd2(60-472)) [nM] | IC50 (His-Brd3(20-477)) [nM] | IC50 [1] [nM] | Structure (SMILES) | IC (total growth inhibition) (K-562 cells; read-out: K-562 TGI) [µM] | IC (total growth inhibition) (MV-4-11 cells) [µM] | IC (total growth inhibition) (THP-1 cells) [µM] | IC (total growth inhibition) (K-562 cells; [2]) [µM]
67 | 86 | 120 | > 37000 | CNc1cc(N2C(=O)c3c(c(C)nn3C3CC3)C2c2ccc(Cl)cc2)nn2c(C)nnc12 (racemic) [Example 113, 4-(4-chlorophenyl)-1-cyclopropyl-3-methyl-5-(3-methyl-8-(methylamino)-[1,2,4]triazolo[4,3-b]pyridazin-6-yl)-4,5-dihydropyrrolo[3,4-c]pyrazol-6(1H)-one] | >10 |  |  | 
72 | 100 | 67 |  | Cc1c2c(nn1C)C(=O)N(c1cc(Cl)c(=O)n(C)c1)[C@@H]2c1ccc(Cl)cc1 [Example 7, (R)-5-(5-chloro-1-methyl-6-oxo-1,6-dihydropyridin-3-yl)-4-(4-chlorophenyl)-2,3-dimethyl-4,5-dihydropyrrolo[3,4-c]pyrazol-6(2H)-one] |  | 0.107 | 0.191 | > 10
81 | 100 | 66 |  | Cc1cc(N2C(=O)c3nn(C)cc3[C@H]2c2ccc(Cl)cc2)cn(C)c1=O [Example 16, (R)-4-(4-chlorophenyl)-5-(1,5-dimethyl-6-oxo-1,6-dihydropyridin-3-yl)-2-methyl-4,5-dihydropyrrolo[3,4-c]pyrazol-6(2H)-one] |  | 0.116 | 0.207 | > 10
23000 | 30000 | 27000 |  | Cc1c2c(nn1C1CC1)C(=O)N(c1cc(Cl)c(=O)n(C)c1)[C@H]2c1ccc(Cl)cc1 [Example 18, (S)-5-(5-chloro-1-methyl-6-oxo-1,6-dihydropyridin-3-yl)-4-(4-chlorophenyl)-2-cyclopropyl-3-methyl-4,5-dihydropyrrolo[3,4-c]pyrazol-6(2H)-one] |  | 4.04 | > 10 | > 10
47 | 48 | 43 |  | Cc1cc(N2C(=O)c3nn(C4CC4)c(C)c3[C@H]2c2ccc(Cl)cc2)cn(C)c1=O [Example 21] |  | 0.0378 | 0.0687 | > 10
 |  |  |  | Cc1nn(C2CC2)c2c1[C@H](c1ccc(Cl)cc1)N(c1cc(C)c3nnc(C)n3c1)C2=O [Example 118, (S)-4-(4-chlorophenyl)-1-cyclopropyl-5-(3,8-dimethyl-[1,2,4]triazolo[4,3-a]pyridin-6-yl)-3-methyl-4,5-dihydropyrrolo[3,4-c]pyrazol-6(1H)-one] |  | 3.35 | > 10 | > 10
 |  |  |  | Cc1cc(N2C(=O)c3nn(C(C)C)c(C)c3C2c2ccc(Cl)cc2F)cn2c(C)nnc12 (stereo not shown) [Example 169, 4-(4-chloro-2-fluorophenyl)-5-(3,8-dimethyl-[1,2,4]triazolo[4,3-a]pyridin-6-yl)-2-isopropyl-3-methyl-4,5-dihydropyrrolo[3,4-c]pyrazol-6(2H)-one] |  | 0.0576 | 0.121 | > 10
25 | 69 | 31 | 10000 | CCn1nc(C)c2c1C(=O)N(c1cc(C)c3nnc(C)n3c1)[C@@H]2c1ccc(F)cc1F [Example 191, (S)-4-(2,4-difluorophenyl)-5-(3,8-dimethyl-[1,2,4]triazolo[4,3-a]pyridin-6-yl)-1-ethyl-3-methyl-4,5-dihydropyrrolo[3,4-c]pyrazol-6(1H)-one] |  |  |  | 
39 | 53 | 44 | 7100 | CCn1nc(C)c2c1C(=O)N(c1cc(C)c3nnc(C)n3c1)[C@@H]2c1ccc(Cl)cc1F [Example 192, (S)-4-(4-chloro-2-fluorophenyl)-5-(3,8-dimethyl-[1,2,4]triazolo[4,3-a]pyridin-6-yl)-1-ethyl-3-methyl-4,5-dihydropyrrolo[3,4-c]pyrazol-6(1H)-one] |  |  |  | 
 |  |  |  | COc1ncccc1-n1nc2c(c1C)C(c1ccc(F)cc1F)N(c1cc(C)c3nnc(C)n3c1)C2=O (stereo not shown) [Example 193, 4-(2,4-difluorophenyl)-5-(3,8-dimethyl-[1,2,4]triazolo[4,3-a]pyridin-6-yl)-2-(2-methoxypyridin-3-yl)-3-methyl-4,5-dihydropyrrolo[3,4-c]pyrazol-6(2H)-one] |  | 0.0985 | 0.141 | > 10
 |  |  |  | Cc1[nH]nc2c1C(c1ccc(Cl)cc1F)N(c1cc(C)c(=O)n(C)c1)C2=O (stereo not shown) [Example 196, 4-(4-chloro-2-fluorophenyl)-5-(1,5-dimethyl-6-oxo-1,6-dihydropyridin-3-yl)-3-methyl-4,5-dihydropyrrolo[3,4-c]pyrazol-6(2H)-one] |  | 0.266 | 0.53 | > 10
